Measured values as given in publication PMC8172068 (PLoS ONE, 2021).
“Also recorded” adds a separate entry of the source. Counter-ions that a name gives are not always drawn.

B1: β-Casein: a 30 kDa protein containing 5 serine residues (protein, UniProt P02666 16-224, looked up)
Beta-casein: RELEELNVPGEIVESLSSSEESITRINKKIEKFQSEEQQQTEDELQDKIHPFAQTQSLVYPFPGPIPNSLPQNIPPLTQTPVVVPPFLQPEVMGVSKVKEAMAPKHKEMPFPKYPVEPFTESQSLTLTDVENLHLPLPLLQSWMHQPHQPLPPTVMFPPQSVLSLSQSKVLPVPQKAVPYPQRDMPIQAFLLYQEPVLGPVRGPFPIIV

Target: T1, Acinetobacter baumannii rAcpA (Acinetobacter baumannii, UniProt A0ABX6CG12)
Test: Hydrolysis of various phosphorylated compounds by rAcpA (released phosphate)
Assay type: biochemical
Settings: phosphate released relative to paranitrophenol released from PNPP x100; compound at 0.1 mM final concentration
Method: All incubations were carried out for 30 minutes at 37 °C after which time reactions were placed in an ice slurry for 3 minutes followed by addition of enzyme to the respective blanks and reactions were terminated by heating at 65 °C for 10 minutes followed by immersion in an ice slurry for 3 minutes. Released phosphate was determined by addition of 1.0 mL BIOMOL GREEN phosphate reagent (Enzo Life Sciences), and monitored at 620 nm using a Genesys 10 UV Scanning Spectrophotometer (Thermo Scientific). Paranitrophenol was monitored at 405 nm following addition of 1.7 mL 0.5 M Glycine buffer, pH 10. Following subtraction of blank values, paranitrophenol and released phosphate were quantitated using paranitrophenol and phosphate standard curves, respectively. […] Specific activity is expressed as nmoles paranitrophenol or free phosphate liberated mg^-1s^-1.

| Molecule | Relative Activity [%] |
| --- | --- |
| K-R-pT-I-R-R [Threonine Phosphopeptide] | 0.0 |
| R-R-A-pS-V-A [Serine Phosphopeptide] | 0.0 |
| T-S-T-E-P-Q-pY-Q-P-G-E-N-L [Tyrosine Phosphopeptide] | 20.0 |
| B1 | 1.2 |

Same assay, conditions: phosphate released relative to paranitrophenol released from PNPP x100; compound at 0.1 mM final concentration; listed as serine phosphopeptide

| Molecule | Relative Activity [%] |
| --- | --- |
| R-R-A-pS-V-A [Serine Phosphopeptide] | 0 |

Same assay, conditions: phosphate released relative to paranitrophenol released from PNPP x100; compound at 0.1 mM final concentration; listed as threonine phosphopeptide

| Molecule | Relative Activity [%] |
| --- | --- |
| K-R-pT-I-R-R [Threonine Phosphopeptide] | 0 |

Same assay, conditions: phosphate released relative to paranitrophenol released from PNPP x100; compound at 0.1 mM final concentration; listed as tyrosine phosphopeptide

| Molecule | Relative Activity [%] |
| --- | --- |
| T-S-T-E-P-Q-pY-Q-P-G-E-N-L [Tyrosine Phosphopeptide] | 20 |

Same assay, conditions: phosphate released relative to paranitrophenol released from PNPP x100; compound at 2.0 mM final concentration

| Molecule | Relative Activity [%] |
| --- | --- |
| Nc1ncnc2c1ncn2[C@@H]1O[C@H](CO)[C@@H](OP(=O)(O)O)[C@H]1O [3’-AMP] | 63.0 |
| Nc1ncnc2c1ncn2[C@@H]1O[C@H](COP(=O)(O)OP(=O)(O)O)[C@@H](O)[C@H]1O [ADP] | 1.9 |
| Nc1ncnc2c1ncn2[C@@H]1O[C@H](COP(=O)(O)O)[C@@H](O)[C@H]1O [AMP] | 27.0 |
| Nc1ncnc2c1ncn2[C@@H]1O[C@H](COP(=O)(O)OP(=O)(O)OP(=O)(O)O)[C@@H](O)[C@H]1O [ATP] | 1.1 |
| Nc1ccn([C@@H]2O[C@H](COP(=O)(O)O)[C@@H](O)[C@H]2O)c(=O)n1 [CMP] | 4.1 |
| O=C(COP(=O)(O)O)[C@@H](O)[C@H](O)[C@H](O)COP(=O)(O)O [Fructose-1,6-bisphosphate] | 6.6 |
| Nc1nc2c(ncn2[C@@H]2O[C@H](COP(=O)(O)OP(=O)(O)O)[C@@H](O)[C@H]2O)c(=O)[nH]1 [GDP] | 1.0 |
| O=P(O)(O)O[C@H]1O[C@H](CO)[C@H](O)[C@H](O)[C@H]1O [Galactose-1-Phosphate] | 0.0 |
| O=C[C@H](O)[C@@H](O)[C@H](O)[C@H](O)COP(=O)(O)O [Glucose-6-Phosphate] | 2.7 |
| O=c1[nH]cnc2c1ncn2[C@@H]1O[C@H](COP(=O)(O)OP(=O)(O)O)[C@@H](O)[C@H]1O [IDP] | 0.5 |
| O=C[C@@H](O)[C@@H](O)[C@H](O)[C@H](O)COP(=O)(O)O [Mannose-6-Phosphate] | 10.6 |
| NC(=O)C1=CN([C@@H]2O[C@H](COP(=O)(O)OP(=O)(O)OC[C@H]3O[C@@H](n4cnc5c(N)ncnc54)[C@H](OP(=O)(O)O)[C@@H]3O)[C@@H](O)[C@H]2O)C=CC1 [NADPH] | 3.5 |
| NC(=O)c1ccc[n+]([C@@H]2O[C@H](COP(=O)([O-])OP(=O)(O)OC[C@H]3O[C@@H](n4cnc5c(N)ncnc54)[C@H](OP(=O)(O)O)[C@@H]3O)[C@@H](O)[C@H]2O)c1 [NADP^+] | 3.7 |
| C=C(OP(=O)(O)O)C(=O)O [PEP] | 7.6 |
| N[C@@H](COP(=O)(O)O)C(=O)O [Phospho-L-Serine] | 0.4 |
| C[C@@H](OP(=O)(O)O)[C@H](N)C(=O)O [Phospho-L-Threonine] | 4.5 |
| N[C@@H](Cc1ccc(OP(=O)(O)O)cc1)C(=O)O [Phospho-L-Tyrosine] | 31.5 |
| C[N+](C)(C)CCOP(=O)(O)O [Phosphocholine] | 2.0 |
| NCCOP(=O)(O)O [Phosphoethanolamine] | 1.8 |
| O=P(O)(O)O[C@H]1[C@H](OP(=O)(O)O)[C@@H](OP(=O)(O)O)[C@H](OP(=O)(O)O)[C@@H](OP(=O)(O)O)[C@H]1OP(=O)(O)O [Phytic acid] | 0.0 |
| Cc1ncc(COP(=O)(O)O)c(C=O)c1O [Pyridoxal Phosphate] | 35.3 |
| O=C[C@H](O)[C@H](O)[C@H](O)COP(=O)(O)O [Ribose-5-Phosphate] | 20.0 |
| Cc1cn([C@H]2C[C@H](O)[C@@H](COP(=O)(O)OP(=O)(O)O)O2)c(=O)[nH]c1=O [TDP] | 3.0 |
| Cc1cn([C@H]2C[C@H](O)[C@@H](COP(=O)(O)O)O2)c(=O)[nH]c1=O [TMP] | 27.3 |
| Cc1ncc(C[n+]2csc(CCOP(=O)(O)O)c2C)c(N)n1 [Thiamine Monophosphate] | 12.3 |
| Cc1ncc(C[n+]2csc(CCO[P@](=O)(O)OP(=O)(O)O)c2C)c(N)n1 [Thiamine Pyrophosphate] | 3.6 |
| O=P(O)(O)OC[C@H]1O[C@H](O[C@H]2O[C@H](CO)[C@@H](O)[C@H](O)[C@H]2O)[C@H](O)[C@@H](O)[C@@H]1O [Trehalose-6-Phosphate] | 4.0 |
| O=c1ccn([C@@H]2O[C@H](COP(=O)(O)OP(=O)(O)O)[C@@H](O)[C@H]2O)c(=O)[nH]1 [UDP] | 1.8 |
| O=c1ccn([C@@H]2O[C@H](COP(=O)(O)O)[C@@H](O)[C@H]2O)c(=O)[nH]1 [UMP] | 8.7 |
| O=P(O)(O)OC(CO)CO [β-Glycerol Phosphate] | 40.0 |

Same assay, conditions: phosphate released relative to paranitrophenol released from PNPP x100; compound at 2.0 mM final concentration; listed as galactose-1-phosphate

| Molecule | Relative Activity |
| --- | --- |
| O=P(O)(O)O[C@H]1O[C@H](CO)[C@H](O)[C@H](O)[C@H]1O [Galactose-1-Phosphate] | not hydrolyzed |

Same assay, conditions: phosphate released relative to paranitrophenol released from PNPP x100; compound at 2.0 mM final concentration; listed as phytic acid

| Molecule | Relative Activity |
| --- | --- |
| O=P(O)(O)O[C@H]1[C@H](OP(=O)(O)O)[C@@H](OP(=O)(O)O)[C@H](OP(=O)(O)O)[C@@H](OP(=O)(O)O)[C@H]1OP(=O)(O)O [Phytic acid] | not hydrolyzed |

Target: T1, Acinetobacter baumannii rAcpA
Test: rAcpA enzymatic kinetics with PNPP (Lineweaver-Burk)
Assay type: biochemical
Settings: PNPP 0.10–10.0 mM, 0.149 μg rAcpA, Lineweaver-Burk plot
Method: Unless indicated otherwise, reaction mixtures contained 2.0 mM PNPP (Sigma Chemical Co.) or phosphorylated compounds (Sigma Chemical Co.), 0.20 M MES (Sigma Chemical Co.) buffer, pH 6.0, 2.0 mM NiCl2, and 0.080–0.30 μg total Acinetobacter baumannii rAcpA protein, and were brought to a final concentration of 0.186 μg/μL protein with addition of bovine serum albumin (BSA, BioRad Laboratories) in a total reaction volume of 200 μL (determination of released phosphate) or 300 μL (determination of released paranitrophenol). All incubations were carried out for 30 minutes at 37 °C after which time reactions were placed in an ice slurry for 3 minutes followed by addition of enzyme to the respective blanks and reactions were terminated by heating at 65 °C for 10 minutes followed by immersion in an ice slurry for 3 minutes. Released phosphate was determined by addition of 1.0 mL BIOMOL GREEN phosphate reagent (Enzo Life Sciences), and monitored at 620 nm using a Genesys 10 UV Scanning Spectrophotometer (Thermo Scientific). Paranitrophenol was monitored at 405 nm following addition of 1.7 mL 0.5 M Glycine buffer, pH 10. Following subtraction of blank values, paranitrophenol and released phosphate were quantitated using paranitrophenol and phosphate standard curves, respectively. All reactions, i.e., generation of paranitrophenol and release of free phosphate were linear with both time (30 minutes) and assay protein (0.30 μg, ~ 13.2 nM). Specific activity is expressed as nmoles paranitrophenol or free phosphate liberated mg^-1s^-1.
The effect of increasing PNPP substrate on Acinetobacter baumannii rAcpA activity was determined.
Fig 4 Determination of Km and Vmax. Enzymatic activity (0.149 μg rAcpA) was determined over a broad range of PNPP concentrations (0.10–10.0 mM) in replicates of five for each substrate concentration tested and corresponding blank. Km and Vmax values were derived from standard Lineweaver-Burk plot analysis. Error bars represent 1 standard deviation from the mean.

| Molecule | Km [µM] | Vmax [pmol/s] |
| --- | --- | --- |
| O=[N+]([O-])c1ccc(OP(=O)(O)O)cc1 [PNPP] | 90 | 19.2 |

Same assay, conditions: calculated on the basis of 37 kDa

| Molecule | turnover number (kcat) [s⁻¹] |
| --- | --- |
| O=[N+]([O-])c1ccc(OP(=O)(O)O)cc1 [PNPP] | 4.80 |

Target: T1, Acinetobacter baumannii rAcpA
Test: biochemical
Assay type: biochemical
Settings: not given

| Molecule | IC50 [µM] | Percent Control [%] | sensitivity of rAcpA to compound | concentration inhibiting 50% [% v/v] | stimulation of PNPP hydrolysis |
| --- | --- | --- | --- | --- | --- |
| O[C@@H](CS)[C@@H](O)CS [Dithiothreitol] | 3000 | – | – | – | – |
| C=C1[C@@H](O)[C@@H]2O[C@]3(CC[C@H](/C=C/[C@@H](C)[C@@H]4CC(C)=C[C@@]5(O[C@H](C[C@@](C)(O)C(=O)O)CC[C@H]5O)O4)O3)CC[C@H]2O[C@@H]1[C@@H](O)C[C@H](C)[C@H]1O[C@@]2(CCCCO2)CC[C@H]1C [Okadaic acid] | – | 100 | insensitive; also recorded: did not inhibit | – | – |
| O=P(O)(O)OP(=O)(O)O [Sodium Pyrophosphate] | 2500 | – | – | – | – |
| O=C(O)C(O)C(O)C(=O)O (centres unmarked) [Sodium Tartrate] | 2000 | – | – | – | – |
| Triton X100 | – | – | – | 0.32 | – |
| Tween 20 | – | 140 | – | – | ~ 1.4 fold |

Same assay, conditions: pH 6; read-out: IC50

| Molecule | IC50 [µM] |
| --- | --- |
| O[C@H](CS)[C@@H](O)CS [Dithioerythritol] | 2000 |
| O=C(O)CN(CCN(CC(=O)O)CC(=O)O)CC(=O)O [EDTA] | 1250 |
| [O]=[Mo](=[O])([OH])[OH] [Molybdate] | 350 |
| CCCCCCCCCCCCOS(=O)(=O)[O-].[Na+] [Sodium Dodecyl Sulfate] | 100 |
| [F-].[Na+] [Sodium Fluoride] | 6000 |
| O=P(O)(O)O [Sodium Phosphate] | 9000 |
| [Na+].[Na+].[Na+].[O]=[V]([O-])([O-])[O-] [Vanadate, sodium orthovanadate] | 125 |
| OCCS [β-Mercaptoethanol] | 10000 |
| Triton X100 | 5100 |

Same assay, conditions: read-out: IC50

| Molecule | IC50 [µM] |
| --- | --- |
| [O]=[Mo](=[O])([OH])[OH] [Molybdate] | 350 |
| CCCCCCCCCCCCOS(=O)(=O)[O-].[Na+] [Sodium Dodecyl Sulfate] | 100 |
| [Na+].[Na+].[Na+].[O]=[V]([O-])([O-])[O-] [Vanadate, sodium orthovanadate] | 125 |

Target: T1, Acinetobacter baumannii rAcpA
Test: not given
Assay type: biochemical
Settings: pH 6

| Molecule | PNPP hydrolysis as percent of that observed for NiCl2 [%] |
| --- | --- |
| CoCl2 | 76 |

Same assay, conditions: pH 6.0, divalent cation 2 mM final concentration

| Molecule | PNPP hydrolysis as percent of that observed for NiCl2 |
| --- | --- |
| [Cl-].[Cl-].[Mg+2] [MgCl2] | 85% |
| [Cl][Mn][Cl] [MnCl2] | 50% |
| [Cl][Ni][Cl] [NiCl2] | Maximum hydrolysis |
| [Cl-].[Cl-].[Zn+2] [ZnCl2] | 11% |
| mercury | very inhibitory |
